Experimental findings from PubChem BioAssay (NCI) are described below.

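Briefly, cells in 96-well plates were exposed to five compound concentrations for 48 h, and endpoints were estimated by linear interpolation. At the TGI there is no net growth.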

The test system of one assay is CAKI-1 renal. Nature of the assay: NCI-60 cell line screen, 48 h.
`CC1C[C@]2(C)C(=NCCN)Nc3ccccc3[C@@H]2N(C)c2ccccc21` (some centres undefined) returned a TGI of 31.3 µM.

For `O=[N+]([O-])/C(C(Cl)=C(Cl)Cl)=C(/Nc1ccccc1)SCc1ccccc1`, the TGI was 68.7 µM.

`COc1cc(N(CCC#N)CCC#N)ccc1/C(N=Nc1ccccc1C)=N\NC(=O)c1ccc(C)cc1` yielded a TGI greater than 100 µM.

Molecule `O=C(Oc1ccccc1)N1c2ccccc2[C@@]23O[C@]24CCC[C@H]3C#C/C=C\C#C[C@H]14` displayed a TGI of 25.7 µM.

A further assay has as its system NCI-H226 lung. Nature of the assay: NCI-60 cell line screen, 48 h.
Consider `CC1C[C@]2(C)C(=NCCN)Nc3ccccc3[C@@H]2N(C)c2ccccc21` (some centres undefined), for which the TGI was determined as 30.2 µM.

`O=[N+]([O-])/C(C(Cl)=C(Cl)Cl)=C(/Nc1ccccc1)SCc1ccccc1` had a TGI of 44.6 µM.

`COc1cc(N(CCC#N)CCC#N)ccc1/C(N=Nc1ccccc1C)=N\NC(=O)c1ccc(C)cc1` gave a TGI greater than 100 µM.

On to `O=C(Oc1ccccc1)N1c2ccccc2[C@@]23O[C@]24CCC[C@H]3C#C/C=C\C#C[C@H]14`, for which the TGI was 38.1 µM.

For the next assay, the system named is MCF7 breast. Nature of the assay: NCI-60 cell line screen, 48 h.
`CC1C[C@]2(C)C(=NCCN)Nc3ccccc3[C@@H]2N(C)c2ccccc21` (some centres undefined): the TGI came out at 21.3 µM.

The test system of the next assay is IGROV1 ovarian. Briefly: NCI-60 cell line screen, 48 h.
The molecule `CC1C[C@]2(C)C(=NCCN)Nc3ccccc3[C@@H]2N(C)c2ccccc21` (some centres undefined) had a TGI of 27.6 µM.

In the case of `O=[N+]([O-])/C(C(Cl)=C(Cl)Cl)=C(/Nc1ccccc1)SCc1ccccc1`, the TGI came out at 39.9 µM.

Molecule `COc1cc(N(CCC#N)CCC#N)ccc1/C(N=Nc1ccccc1C)=N\NC(=O)c1ccc(C)cc1` gave a TGI greater than 100 µM.

Take `O=C(Oc1ccccc1)N1c2ccccc2[C@@]23O[C@]24CCC[C@H]3C#C/C=C\C#C[C@H]14`: the TGI came to 24.9 µM.

The test system of another assay is T-47D breast. Briefly: NCI-60 cell line screen, 48 h.
Molecule `CC1C[C@]2(C)C(=NCCN)Nc3ccccc3[C@@H]2N(C)c2ccccc21` (some centres undefined) registered a TGI of 39.2 µM.

In the case of `O=[N+]([O-])/C(C(Cl)=C(Cl)Cl)=C(/Nc1ccccc1)SCc1ccccc1`, the TGI was greater than 100 µM.

The molecule `COc1cc(N(CCC#N)CCC#N)ccc1/C(N=Nc1ccccc1C)=N\NC(=O)c1ccc(C)cc1` had a TGI greater than 100 µM.

In turn, `O=C(Oc1ccccc1)N1c2ccccc2[C@@]23O[C@]24CCC[C@H]3C#C/C=C\C#C[C@H]14` yielded a TGI of 22 µM.

The next assay deals with A498 renal. Nature of the assay: NCI-60 cell line screen, 48 h.
`CC1C[C@]2(C)C(=NCCN)Nc3ccccc3[C@@H]2N(C)c2ccccc21` (some centres undefined): the TGI turned out to be 30.5 µM.

For the molecule `O=[N+]([O-])/C(C(Cl)=C(Cl)Cl)=C(/Nc1ccccc1)SCc1ccccc1`, the TGI came to 46.7 µM.

`O=C(Oc1ccccc1)N1c2ccccc2[C@@]23O[C@]24CCC[C@H]3C#C/C=C\C#C[C@H]14` came in with a TGI of 27.6 µM.

A further assay relates to OVCAR-5 ovarian. Briefly: NCI-60 cell line screen, 48 h.
Molecule `CC1C[C@]2(C)C(=NCCN)Nc3ccccc3[C@@H]2N(C)c2ccccc21` (some centres undefined) came in with a TGI of 27.4 µM.

Regarding `O=[N+]([O-])/C(C(Cl)=C(Cl)Cl)=C(/Nc1ccccc1)SCc1ccccc1`, the TGI turned out to be 41.2 µM.

As for `COc1cc(N(CCC#N)CCC#N)ccc1/C(N=Nc1ccccc1C)=N\NC(=O)c1ccc(C)cc1`, the TGI is greater than 100 µM.

As for `O=C(Oc1ccccc1)N1c2ccccc2[C@@]23O[C@]24CCC[C@H]3C#C/C=C\C#C[C@H]14`, the TGI stood at 24.1 µM.

Another assay concerns SR leukemia. Nature of the assay: NCI-60 cell line screen, 48 h.
`CC1C[C@]2(C)C(=NCCN)Nc3ccccc3[C@@H]2N(C)c2ccccc21` (some centres undefined) registered a TGI of 8.73 µM.

In turn, `O=[N+]([O-])/C(C(Cl)=C(Cl)Cl)=C(/Nc1ccccc1)SCc1ccccc1` came in with a TGI of 52.3 µM.

Molecule `O=C(Oc1ccccc1)N1c2ccccc2[C@@]23O[C@]24CCC[C@H]3C#C/C=C\C#C[C@H]14` came in with a TGI of 41.1 µM.

The test system of a further assay is SF-295 CNS. Nature of the assay: NCI-60 cell line screen, 48 h.
`CC1C[C@]2(C)C(=NCCN)Nc3ccccc3[C@@H]2N(C)c2ccccc21` (some centres undefined): the TGI was 32 µM.

Turning to `O=[N+]([O-])/C(C(Cl)=C(Cl)Cl)=C(/Nc1ccccc1)SCc1ccccc1`, the TGI came to 90 µM.

Regarding `COc1cc(N(CCC#N)CCC#N)ccc1/C(N=Nc1ccccc1C)=N\NC(=O)c1ccc(C)cc1`, the TGI is greater than 100 µM.

`O=C(Oc1ccccc1)N1c2ccccc2[C@@]23O[C@]24CCC[C@H]3C#C/C=C\C#C[C@H]14` returned a TGI of 30.9 µM.

The subject of the next assay is HCT-116 colon. Nature of the assay: NCI-60 cell line screen, 48 h.
The molecule `CC1C[C@]2(C)C(=NCCN)Nc3ccccc3[C@@H]2N(C)c2ccccc21` (some centres undefined) registered a TGI of 21 µM.

Turning to `O=[N+]([O-])/C(C(Cl)=C(Cl)Cl)=C(/Nc1ccccc1)SCc1ccccc1`, the TGI was found to be 30.2 µM.

In turn, `COc1cc(N(CCC#N)CCC#N)ccc1/C(N=Nc1ccccc1C)=N\NC(=O)c1ccc(C)cc1` came in with a TGI greater than 100 µM.

`O=C(Oc1ccccc1)N1c2ccccc2[C@@]23O[C@]24CCC[C@H]3C#C/C=C\C#C[C@H]14`: the TGI turned out to be 24.2 µM.

The test system of a further assay is PC-3 prostate. Nature of the assay: NCI-60 cell line screen, 48 h.
`CC1C[C@]2(C)C(=NCCN)Nc3ccccc3[C@@H]2N(C)c2ccccc21` (some centres undefined) yielded a TGI of 26.6 µM.

`O=[N+]([O-])/C(C(Cl)=C(Cl)Cl)=C(/Nc1ccccc1)SCc1ccccc1` displayed a TGI of 49.4 µM.

Consider `COc1cc(N(CCC#N)CCC#N)ccc1/C(N=Nc1ccccc1C)=N\NC(=O)c1ccc(C)cc1`, for which the TGI is greater than 100 µM.

Consider `O=C(Oc1ccccc1)N1c2ccccc2[C@@]23O[C@]24CCC[C@H]3C#C/C=C\C#C[C@H]14`, for which the TGI was 23.8 µM.

For a further assay, the system named is TK-10 renal. Nature of the assay: NCI-60 cell line screen, 48 h.
As to `CC1C[C@]2(C)C(=NCCN)Nc3ccccc3[C@@H]2N(C)c2ccccc21` (some centres undefined), the TGI was 21.5 µM.

In turn, `O=[N+]([O-])/C(C(Cl)=C(Cl)Cl)=C(/Nc1ccccc1)SCc1ccccc1` came in with a TGI of 60.6 µM.

Molecule `COc1cc(N(CCC#N)CCC#N)ccc1/C(N=Nc1ccccc1C)=N\NC(=O)c1ccc(C)cc1` displayed a TGI greater than 100 µM.

Molecule `O=C(Oc1ccccc1)N1c2ccccc2[C@@]23O[C@]24CCC[C@H]3C#C/C=C\C#C[C@H]14` came in with a TGI of 47.8 µM.

In a further assay the test system is SF-268 CNS. Nature of the assay: NCI-60 cell line screen, 48 h.
Molecule `CC1C[C@]2(C)C(=NCCN)Nc3ccccc3[C@@H]2N(C)c2ccccc21` (some centres undefined) had a TGI of 30.4 µM.

`O=[N+]([O-])/C(C(Cl)=C(Cl)Cl)=C(/Nc1ccccc1)SCc1ccccc1` showed a TGI of 43.4 µM.

As to `COc1cc(N(CCC#N)CCC#N)ccc1/C(N=Nc1ccccc1C)=N\NC(=O)c1ccc(C)cc1`, the TGI is greater than 100 µM.

Take `O=C(Oc1ccccc1)N1c2ccccc2[C@@]23O[C@]24CCC[C@H]3C#C/C=C\C#C[C@H]14`: the TGI amounted to 43.2 µM.

For another assay, the system named is CCRF-CEM leukemia. Briefly: NCI-60 cell line screen, 48 h.
`CC1C[C@]2(C)C(=NCCN)Nc3ccccc3[C@@H]2N(C)c2ccccc21` (some centres undefined) registered a TGI of 35 µM.

`O=[N+]([O-])/C(C(Cl)=C(Cl)Cl)=C(/Nc1ccccc1)SCc1ccccc1`: the TGI came to 35.5 µM.

`COc1cc(N(CCC#N)CCC#N)ccc1/C(N=Nc1ccccc1C)=N\NC(=O)c1ccc(C)cc1` had a TGI of 40.3 µM.

As for `O=C(Oc1ccccc1)N1c2ccccc2[C@@]23O[C@]24CCC[C@H]3C#C/C=C\C#C[C@H]14`, the TGI is greater than 100 µM.

For another assay, the system named is HL-60(TB) leukemia. Nature of the assay: NCI-60 cell line screen, 48 h.
The molecule `CC1C[C@]2(C)C(=NCCN)Nc3ccccc3[C@@H]2N(C)c2ccccc21` (some centres undefined) yielded a TGI of 36 µM.

`O=[N+]([O-])/C(C(Cl)=C(Cl)Cl)=C(/Nc1ccccc1)SCc1ccccc1` yielded a TGI of 40.2 µM.

On to `COc1cc(N(CCC#N)CCC#N)ccc1/C(N=Nc1ccccc1C)=N\NC(=O)c1ccc(C)cc1`, for which the TGI came out at 23 µM.
